# Measurements taken from ChEMBL document CHEMBL4184221, “Identification and optimization of soluble epoxide hydrolase inhibitors with dual potency towards fatty acid amide hydrolase” (Bioorg Med Chem Lett, 2018).
# The source made the active and inactive calls. The calls are words filed in the database; no cut-off is given here.
# Legend:
# [1] = molecular target: T1, Bifunctional epoxide hydrolase 2 (Homo sapiens, UniProt P34913); experiment: Inhibition of human recombinant soluble epoxide hydrolase expressed in baculovirus-infected High Five cells S9 fraction using CMNPC substrate by fluorescence based assay; type: cell-based
# T1 sequence (P34913 whole entry): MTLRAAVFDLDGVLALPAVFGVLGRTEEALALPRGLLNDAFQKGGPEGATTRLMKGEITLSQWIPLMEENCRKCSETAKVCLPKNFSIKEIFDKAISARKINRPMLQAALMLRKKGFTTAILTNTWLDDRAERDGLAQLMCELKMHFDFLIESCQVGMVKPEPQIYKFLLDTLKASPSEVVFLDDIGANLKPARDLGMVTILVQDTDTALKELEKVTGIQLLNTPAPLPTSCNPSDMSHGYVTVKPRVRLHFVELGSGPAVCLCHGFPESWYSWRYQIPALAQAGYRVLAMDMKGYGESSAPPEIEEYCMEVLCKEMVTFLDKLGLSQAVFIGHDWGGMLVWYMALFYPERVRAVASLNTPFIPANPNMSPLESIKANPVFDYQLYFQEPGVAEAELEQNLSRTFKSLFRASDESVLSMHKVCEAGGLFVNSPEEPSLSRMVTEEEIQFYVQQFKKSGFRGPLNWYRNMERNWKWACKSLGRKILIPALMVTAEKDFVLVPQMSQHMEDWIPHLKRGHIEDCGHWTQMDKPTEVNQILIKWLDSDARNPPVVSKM
# [2] = molecular target: T2, Bifunctional epoxide hydrolase 2 (Homo sapiens) (UniProt P34913)
# T2 sequence (whole entry): T1 sequence (P34913 whole entry)
# Equus caballus = species on record: Equus caballus; experiment: (§1) Inhibition of FAAH in horse brain microsomes using OMP substrate by fluorescence based assay; settings: concentration not given here
# [3] = as §1; parameters: species or system Equus caballus
# Canis lupus familiaris = species on record: Canis lupus familiaris; experiment: Inhibition of FAAH in dog brain microsomes using OMP substrate by fluorescence based assay; settings: concentration not given here
# Felis catus = species on record: Felis catus; experiment: Inhibition of FAAH in cat brain microsomes using OMP substrate by fluorescence based assay; settings: concentration not given here
SMILES,IC50 [1] [nM],TDI [2],other results
O=C(Nc1ccc(Oc2ccc(C(=O)O)cc2)cc1)Nc1ccc(OC(F)(F)F)cc1,7,,
O=C(Nc1ccc(Cl)cc1)N[C@H]1CC[C@H](Oc2ccc(C(=O)O)cc2)CC1,7,,
O=C(NC1CCCCC1)N[C@H]1CC[C@H](Oc2ccc(C(=O)O)cc2)CC1,6,,
O=C(Nc1ccc(OC(F)(F)F)cc1)N[C@H]1CC[C@H](Oc2ccc(C(=O)O)cc2)CC1,,inactive,
NC(=O)c1cccc(-c2cccc(OC(=O)NC3CCCCC3)c2)c1 [URB-597],1100,Active,inhibition (Equus caballus): > 80%; IC50 [3]: 7 nM; inhibition (Canis lupus familiaris): > 80%; inhibition (Felis catus): > 80%
